From ChEMBL document CHEMBL3638719, “Carbazole and carboline kinase inhibitors” (2014)
pIC50: −log10 of the molar value.

Target: Tyrosine-protein kinase JAK2 (Homo sapiens, UniProt O60674)
Experiment: Tyrosine Kinase Assay: The assays were performed in V-bottom 384-well plates. […] The reaction was initiated by the combination of JAK2 with substrates and test compounds. The reaction was incubated at room temperature for 60 min. and terminated by adding 45 ul of 35 mM EDTA to each sample. The reaction mixture was analyzed on the Caliper LABCHIP 3000 by electrophoretic separation of the fluorescent substrate and phosphorylated product.

Chain of Tyrosine-protein kinase JAK2 (O60674 whole entry): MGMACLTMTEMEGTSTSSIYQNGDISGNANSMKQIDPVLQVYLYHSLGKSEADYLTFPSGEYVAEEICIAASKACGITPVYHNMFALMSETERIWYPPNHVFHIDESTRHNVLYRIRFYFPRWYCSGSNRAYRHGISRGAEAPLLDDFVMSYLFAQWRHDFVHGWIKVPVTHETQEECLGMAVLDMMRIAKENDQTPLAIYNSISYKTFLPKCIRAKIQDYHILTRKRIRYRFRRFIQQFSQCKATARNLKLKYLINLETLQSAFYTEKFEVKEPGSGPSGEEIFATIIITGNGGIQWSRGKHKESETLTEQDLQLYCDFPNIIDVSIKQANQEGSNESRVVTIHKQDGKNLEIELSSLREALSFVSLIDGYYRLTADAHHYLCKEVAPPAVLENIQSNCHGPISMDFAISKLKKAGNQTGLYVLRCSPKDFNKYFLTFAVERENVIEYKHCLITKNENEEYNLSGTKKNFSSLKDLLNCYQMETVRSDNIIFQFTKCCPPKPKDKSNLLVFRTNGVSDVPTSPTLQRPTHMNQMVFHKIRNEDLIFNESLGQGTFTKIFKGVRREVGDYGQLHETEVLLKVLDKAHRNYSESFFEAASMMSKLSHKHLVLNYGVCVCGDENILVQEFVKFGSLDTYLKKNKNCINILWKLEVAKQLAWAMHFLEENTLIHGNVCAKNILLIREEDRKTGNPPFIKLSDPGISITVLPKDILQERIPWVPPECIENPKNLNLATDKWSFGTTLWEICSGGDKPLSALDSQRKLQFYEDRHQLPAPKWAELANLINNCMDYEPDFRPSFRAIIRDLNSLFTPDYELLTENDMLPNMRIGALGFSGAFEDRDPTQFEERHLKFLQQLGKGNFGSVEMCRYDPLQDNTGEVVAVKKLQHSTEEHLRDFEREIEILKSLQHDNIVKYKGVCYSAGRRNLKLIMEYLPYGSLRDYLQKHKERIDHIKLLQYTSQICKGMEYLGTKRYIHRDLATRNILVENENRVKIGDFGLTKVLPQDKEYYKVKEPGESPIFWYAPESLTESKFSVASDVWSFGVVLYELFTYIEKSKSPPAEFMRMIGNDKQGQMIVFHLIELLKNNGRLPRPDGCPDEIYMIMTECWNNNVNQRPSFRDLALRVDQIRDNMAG

Structure (SMILES)	pIC50
COc1cccc(-c2cc(C(N)=O)c3[nH]c4cc(NC(=O)OC(C)(C)C)ccc4c3c2)c1	6.80
COc1ccc(-c2cc(C(N)=O)c3[nH]c4cc(C(=O)N5CCCC(C)(O)C5)ccc4c3c2)cc1F (configuration not stated)	9.00
